Data reported in patent publication EP0044212B1, “Herbicidal o-alkylsulfonyloxy- and o-alkylsulfonylamino-benzenesulfonamides” (E.I. DU PONT DE NEMOURS AND COMPANY, priority 1980, dated 1982).

What was measured:
Test in all cases: Test B pre-emergence on Fallsington silt loam
[1] = test system: Crabgrass; format: in vivo, Digitaria sanguinalis; set-up: scale not given here; conditions: 28 days
Text: (§1) Two plastic bulb pans were filled with fertilized and limed Fallsington silt loam soil. One pan was planted with corn, sorghum, Kentucky bluegrass and several grassy weeds. The other pan was planted with cotton, soybeans, purple nutsedge (Cyperus rotundus), and several broadleaf weeds. The following grassy and broadleaf weeds were planted: crabgrass (Digitaria sanguinalis), barnyardgrass (Echinochloa crusgalli), wild oats (Avena fatua), johnsongrass (Sorghum halepense), dallisgrass (Paspalum dilatatum), giant foxtail (Setaria faberii), cheatgrass (Bromus secalinus), mustard (Brassica arvensis), cocklebur (Xanthium pensylvanicum), pigweed (Amaranthus retroflexus), morningglory (Ipomoea hederacea), cassia (Cassia tora), teaweed (Sida spinosa), velvetleaf (Abutilon theophrasti), and jimsonweed (Datura stramonium). A 12.5 cm diameter plastic pot was also filed with prepared soil and planted with rice and wheat. Another 12.5 cm pot was planted with sugarbeets. The above four containers were treated pre- emergence with several test compounds within the scope of the invention.
(§2) Twenty-eight days after treatment, the plants were evaluated and visually rated for response to the chemical treatments utilizing the rating system described previously for Test A. The data are summarized in Table B.

[2] = test system: Barnyardgrass; format: in vivo, Echinochloa crusgalli; conditions: 0.06 kg/ha, 28 days
Text: as §1, §2

[3] = test system: Wild Oats; format: in vivo, Avena fatua; set-up: scale not given here; conditions: 28 days
Text: as §1, §2

[4] = test system: Dallisgrass; format: in vivo, Paspalum dilatatum; set-up: scale not given here; conditions: 28 days
Text: as §1, §2

[5] = test system: Giant Foxtail; format: in vivo, Setaria faberii; conditions: 0.06 kg/ha, 28 days
Text: as §1, §2

[6] = test system: Ky. bluegrass; format: in vivo, Kentucky bluegrass; set-up: scale not given here; conditions: 28 days
Text: as §1, §2

[7] = test system: Cheatgrass; format: in vivo, Bromus secalinus; conditions: 28 days
Text: as §1, §2

[8] = test system: Corn; format: in vivo; set-up: scale not given here; conditions: 28 days
Text: as §1, §2

[9] = test system: Wheat; format: in vivo; set-up: scale not given here; conditions: 28 days
Text: as §1, §2

[10] = test system: Cotton; format: in vivo; conditions: 0.06 kg/ha, 28 days
Text: as §1, §2

[11] = test system: Rice; format: in vivo; conditions: 28 days
Text: as §1, §2

[12] = test system: Cassia; format: in vivo, Cassia tora; conditions: 0.06 kg/ha, 28 days
Text: as §1, §2

[13] = test system: Soybean; format: in vivo, soybeans; conditions: 0.06 kg/ha, 28 days
Text: as §1, §2

CCCS(=O)(=O)Oc1ccccc1S(=O)(=O)NC(=O)Nc1nc(OC)cc(OC)n1 [Compound 36, N-[(4,6-dimethoxypropimidin-2-yl)aminocarbonyl]-2-hydroxybenzenesulfonamide, 1-propanesulfonate]
Crabgrass response rating ([1]; 0.06 kg/ha): 2G
Crabgrass response rating ([1]; 0.25 kg/ha): 4G
Barnyardgrass response rating [2]: 4G
Wild Oats response rating ([3]; 0.06 kg/ha): 4G
Wild Oats response rating ([3]; 0.25 kg/ha): 4G
Dallisgrass response rating ([4]; 0.06 kg/ha): 4G
Dallisgrass response rating ([4]; 0.25 kg/ha): 5G
Giant Foxtail response rating [5]: 4G
Ky. bluegrass response rating ([6]; 0.06 kg/ha): 6G
Ky. bluegrass response rating ([6]; 0.25 kg/ha): 7G
Cheatgrass response rating ([7]; 0.06 kg/ha): 6G
Cheatgrass response rating ([7]; 0.25 kg/ha): 7G
Corn response rating ([8]; 0.06 kg/ha): 3G
Corn response rating ([8]; 0.25 kg/ha): 4G
Wheat response rating ([9]; 0.06 kg/ha): 0
Wheat response rating ([9]; 0.25 kg/ha): 0
Cotton response rating [10]: 4G
Rice response rating ([11]; 0.06 kg/ha): 3G
Rice response rating ([11]; 0.25 kg/ha): 5G
Cassia response rating [12]: 6G
Soybean response rating [13]: 2G
